# PubChem BioAssay (NCI)
#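 Grown in 96-well plates, cells were treated for 48 hours with each compound at five concentrations. Insufficient inhibition: endpoint recorded as highest concentration tested. GI50 marks 50% less growth. Definition used: TGI = concentration required for complete inhibition of growth.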
# Key:
# Assay in all cases: NCI-60 cell line screen, 48 h
# [1] = test system: SK-MEL-2 melanoma
# [2] = test system: LOX IMVI melanoma
# [3] = test system: SF-268 CNS
# [4] = test system: NCI-H460 lung
# [5] = test system: UO-31 renal
# [6] = test system: IGROV1 ovarian
# [7] = test system: UACC-62 melanoma
# [8] = test system: HCC-2998 colon
# [9] = test system: 786-0 renal
# [10] = test system: SW-620 colon
# [11] = test system: K-562 leukemia
# [12] = test system: HCT-15 colon
# [13] = test system: NCI/ADR-RES ovarian
# [14] = test system: RXF 393 renal
# [15] = test system: SF-295 CNS
# [16] = test system: CAKI-1 renal
# [17] = test system: SNB-75 CNS
# [18] = test system: OVCAR-5 ovarian
# [19] = test system: RPMI-8226 leukemia
# [20] = test system: M14 melanoma
# [21] = test system: TK-10 renal
# [22] = test system: HT29 colon
# [23] = test system: ACHN renal
# [24] = test system: SK-MEL-28 melanoma
# [25] = test system: SF-539 CNS
# [26] = test system: MOLT-4 leukemia
# [27] = test system: KM12 colon
# [28] = test system: U251 CNS
# [29] = test system: HOP-62 NSCLC
# [30] = test system: SN12C renal
# [31] = test system: COLO 205 colon
# [32] = test system: MDA-MB-231 breast
# [33] = test system: A498 renal
# [34] = test system: HS 578T breast
# [35] = test system: MCF7 breast
# [36] = test system: OVCAR-8 ovarian
# [37] = test system: T-47D breast
# [38] = test system: CCRF-CEM leukemia
# [39] = test system: HCT-116 colon
# [40] = test system: NCI-H226 lung
# [41] = test system: PC-3 prostate
# [42] = test system: SK-OV-3 ovarian
# [43] = test system: NCI-H522 lung
# [44] = test system: NCI-H23 lung
# [45] = test system: A549 NSCLC
# [46] = test system: OVCAR-4 ovarian
# [47] = test system: MALME-3M melanoma
# [48] = test system: EKVX NSCLC
# [49] = test system: SR leukemia
# [50] = test system: OVCAR-3 ovarian
# [51] = test system: SK-MEL-5 melanoma
# [52] = test system: SNB-19 CNS
# [53] = test system: HOP-92 NSCLC
# [54] = test system: DU-145 prostate
# [55] = test system: UACC-257 melanoma
# [56] = test system: MDA-MB-435
# [57] = test system: BT-549 breast
structure (smiles),measurement,setting,value
Cc1cc(C#Cc2ccc(C(C)(C)C)cc2)ccc1-n1c(/C=C/c2ccc(O)cc2O)nc2ccccc2c1=O,GI50,[1],3.52 µM
same,TGI,[1],13.4 µM
same,GI50,[2],1.49 µM
same,TGI,[2],2.87 µM
same,GI50,[3],4.82 µM
same,TGI,[3],18 µM
same,GI50,[4],1.82 µM
same,TGI,[4],3.75 µM
same,GI50,[5],2.63 µM
same,TGI,[5],15.5 µM
same,GI50,[6],7.48 µM
same,TGI,[6],26.8 µM
same,GI50,[7],3.52 µM
same,TGI,[7],13.5 µM
same,GI50,[8],1.93 µM
same,TGI,[8],3.85 µM
same,GI50,[9],5.08 µM
same,TGI,[9],17.9 µM
same,GI50,[10],1.81 µM
same,TGI,[10],3.71 µM
same,GI50,[11],3.28 µM
same,TGI,[11],14.1 µM
same,GI50,[12],2.74 µM
same,TGI,[12],10.2 µM
same,GI50,[13],3.17 µM
same,TGI,[13],13.4 µM
same,GI50,[14],1.88 µM
same,TGI,[14],4.46 µM
same,GI50,[15],3.83 µM
same,TGI,[15],16.5 µM
same,GI50,[16],2.87 µM
same,TGI,[16],16.2 µM
same,GI50,[17],1.87 µM
same,TGI,[17],16 µM
same,GI50,[18],4.25 µM
same,TGI,[18],16.4 µM
same,GI50,[19],3.1 µM
same,TGI,[19],26.9 µM
same,GI50,[20],5.91 µM
same,TGI,[20],25.6 µM
same,GI50,[21],3.82 µM
same,TGI,[21],12.8 µM
same,GI50,[22],2.08 µM
same,TGI,[22],5.27 µM
same,GI50,[23],3.26 µM
same,TGI,[23],13.4 µM
same,GI50,[24],2.42 µM
same,TGI,[24],7.27 µM
same,GI50,[25],4.37 µM
same,TGI,[25],16.5 µM
same,GI50,[26],2.45 µM
same,TGI,[26],10.2 µM
same,GI50,[27],3.33 µM
same,TGI,[27],10.8 µM
same,GI50,[28],2.11 µM
same,TGI,[28],6.03 µM
same,GI50,[29],5.88 µM
same,TGI,[29],20.5 µM
same,GI50,[30],1.88 µM
same,TGI,[30],4.13 µM
same,GI50,[31],3.02 µM
same,TGI,[31],9.59 µM
same,GI50,[32],3.06 µM
same,TGI,[32],9.59 µM
same,GI50,[33],2.98 µM
same,TGI,[33],11.4 µM
same,GI50,[34],2.2 µM
same,TGI,[34],5.87 µM
same,GI50,[35],2.39 µM
same,TGI,[35],9.06 µM
same,GI50,[36],3.55 µM
same,TGI,[36],12.5 µM
same,GI50,[37],3.85 µM
same,TGI,[37],24.4 µM
same,GI50,[38],3.85 µM
same,TGI,[38],> 100 µM
same,GI50,[39],2.89 µM
same,TGI,[39],10.8 µM
same,GI50,[40],2.17 µM
same,TGI,[40],8.25 µM
same,GI50,[41],3.67 µM
same,TGI,[41],16.2 µM
same,GI50,[42],10.9 µM
same,TGI,[42],30.6 µM
same,GI50,[43],1.83 µM
same,TGI,[43],5.5 µM
same,GI50,[44],2.42 µM
same,TGI,[44],6.8 µM
same,GI50,[45],2.83 µM
same,TGI,[45],11.1 µM
same,GI50,[46],3.15 µM
same,TGI,[46],14.7 µM
same,GI50,[47],8.42 µM
same,TGI,[47],23.2 µM
same,GI50,[48],3.67 µM
same,TGI,[48],16.2 µM
same,GI50,[49],2.45 µM
same,TGI,[49],6.49 µM
same,GI50,[50],3.23 µM
same,TGI,[50],12.5 µM
same,GI50,[51],1.77 µM
same,TGI,[51],3.98 µM
same,GI50,[52],7.9 µM
same,TGI,[52],22.5 µM
same,GI50,[53],2.82 µM
same,TGI,[53],8.31 µM
same,GI50,[54],3.42 µM
same,TGI,[54],13.3 µM
same,GI50,[55],6.92 µM
same,TGI,[55],20.4 µM
same,GI50,[56],3.08 µM
same,TGI,[56],12.3 µM
same,GI50,[57],8.6 µM
same,TGI,[57],33.1 µM
